What was measured:
[1] = target: T1, Mineralocorticoid receptor (Homo sapiens, UniProt P08235); assay: Inhibition of human mineralocorticoid receptor
T1 sequence (P08235 whole entry): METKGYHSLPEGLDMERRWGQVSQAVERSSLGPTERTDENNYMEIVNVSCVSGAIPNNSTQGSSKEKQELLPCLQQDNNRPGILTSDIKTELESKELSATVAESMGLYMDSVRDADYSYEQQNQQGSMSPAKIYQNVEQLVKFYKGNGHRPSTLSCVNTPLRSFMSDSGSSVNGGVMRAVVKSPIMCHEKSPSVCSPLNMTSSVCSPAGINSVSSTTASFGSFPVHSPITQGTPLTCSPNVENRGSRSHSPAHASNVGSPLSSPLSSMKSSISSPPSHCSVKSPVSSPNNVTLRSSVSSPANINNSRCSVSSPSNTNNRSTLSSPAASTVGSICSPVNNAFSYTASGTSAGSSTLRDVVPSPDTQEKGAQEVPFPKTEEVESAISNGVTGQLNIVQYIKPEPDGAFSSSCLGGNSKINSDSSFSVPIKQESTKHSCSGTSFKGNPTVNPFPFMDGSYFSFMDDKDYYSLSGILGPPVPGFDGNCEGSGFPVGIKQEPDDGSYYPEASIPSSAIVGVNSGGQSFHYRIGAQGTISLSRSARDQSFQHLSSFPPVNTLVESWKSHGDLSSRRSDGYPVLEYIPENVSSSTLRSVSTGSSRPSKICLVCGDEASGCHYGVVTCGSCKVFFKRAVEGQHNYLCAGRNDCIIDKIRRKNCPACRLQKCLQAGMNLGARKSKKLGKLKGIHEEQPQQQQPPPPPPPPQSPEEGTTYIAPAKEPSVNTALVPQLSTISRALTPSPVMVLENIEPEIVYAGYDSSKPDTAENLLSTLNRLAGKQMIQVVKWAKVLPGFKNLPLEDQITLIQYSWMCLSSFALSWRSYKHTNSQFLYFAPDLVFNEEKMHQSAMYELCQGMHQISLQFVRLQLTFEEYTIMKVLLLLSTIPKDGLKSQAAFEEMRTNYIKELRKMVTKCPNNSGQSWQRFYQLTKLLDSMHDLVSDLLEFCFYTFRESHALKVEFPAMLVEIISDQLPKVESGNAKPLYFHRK

Progesterone receptor = target: T2, Progesterone receptor (Homo sapiens, UniProt P06401); assay: Inhibition of human progesterone receptor
T2 sequence (P06401 whole entry): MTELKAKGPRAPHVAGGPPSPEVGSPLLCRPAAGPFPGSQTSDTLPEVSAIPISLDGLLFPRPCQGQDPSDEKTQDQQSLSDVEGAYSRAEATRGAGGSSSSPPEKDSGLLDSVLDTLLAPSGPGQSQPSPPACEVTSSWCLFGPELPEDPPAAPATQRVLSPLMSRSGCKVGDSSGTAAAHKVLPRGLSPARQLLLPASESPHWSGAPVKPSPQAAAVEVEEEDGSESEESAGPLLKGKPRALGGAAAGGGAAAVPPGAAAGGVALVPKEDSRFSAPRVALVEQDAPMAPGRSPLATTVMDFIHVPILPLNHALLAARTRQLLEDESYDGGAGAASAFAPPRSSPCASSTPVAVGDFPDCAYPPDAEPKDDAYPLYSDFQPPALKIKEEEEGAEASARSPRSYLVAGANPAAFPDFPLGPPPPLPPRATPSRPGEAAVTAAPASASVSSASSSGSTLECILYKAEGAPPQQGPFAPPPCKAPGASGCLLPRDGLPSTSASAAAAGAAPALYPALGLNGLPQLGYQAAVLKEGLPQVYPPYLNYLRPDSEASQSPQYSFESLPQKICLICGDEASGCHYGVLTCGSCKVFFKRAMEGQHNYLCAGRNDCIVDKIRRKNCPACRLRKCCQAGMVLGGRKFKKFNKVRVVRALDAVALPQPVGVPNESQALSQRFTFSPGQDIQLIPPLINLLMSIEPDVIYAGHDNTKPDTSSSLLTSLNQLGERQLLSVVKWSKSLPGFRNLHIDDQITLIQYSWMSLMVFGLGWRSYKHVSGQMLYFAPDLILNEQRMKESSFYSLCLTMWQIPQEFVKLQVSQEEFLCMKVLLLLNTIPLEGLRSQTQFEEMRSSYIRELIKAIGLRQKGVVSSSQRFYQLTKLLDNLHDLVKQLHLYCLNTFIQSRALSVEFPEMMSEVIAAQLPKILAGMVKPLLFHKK

[2] = Half life period of the compound in rat liver microsomes was determined; format: ADME, Microsome
Glucocorticoid receptor = target: T3, Glucocorticoid receptor (Homo sapiens, UniProt P04150)
T3 sequence (P04150 whole entry): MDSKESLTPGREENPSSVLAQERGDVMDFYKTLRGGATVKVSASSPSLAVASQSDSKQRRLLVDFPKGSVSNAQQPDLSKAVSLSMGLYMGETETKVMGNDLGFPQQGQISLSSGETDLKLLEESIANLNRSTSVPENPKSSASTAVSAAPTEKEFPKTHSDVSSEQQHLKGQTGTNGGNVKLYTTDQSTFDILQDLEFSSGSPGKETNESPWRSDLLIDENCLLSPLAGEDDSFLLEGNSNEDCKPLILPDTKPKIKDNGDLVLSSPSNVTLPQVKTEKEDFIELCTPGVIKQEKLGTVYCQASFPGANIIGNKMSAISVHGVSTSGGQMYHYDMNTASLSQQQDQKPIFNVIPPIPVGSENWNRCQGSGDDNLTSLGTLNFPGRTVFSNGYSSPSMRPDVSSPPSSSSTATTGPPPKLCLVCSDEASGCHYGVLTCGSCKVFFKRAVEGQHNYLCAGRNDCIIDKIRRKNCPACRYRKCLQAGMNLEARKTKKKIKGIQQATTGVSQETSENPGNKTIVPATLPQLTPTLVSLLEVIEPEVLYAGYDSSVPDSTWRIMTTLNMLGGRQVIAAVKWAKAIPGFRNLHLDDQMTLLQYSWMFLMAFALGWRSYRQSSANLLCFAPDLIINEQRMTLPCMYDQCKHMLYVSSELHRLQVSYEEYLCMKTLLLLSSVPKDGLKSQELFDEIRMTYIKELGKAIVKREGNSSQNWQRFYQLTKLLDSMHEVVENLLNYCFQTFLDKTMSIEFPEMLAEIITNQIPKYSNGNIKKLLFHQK

Row | SMILES | IC50 [1] [µM] | IC50 (Progesterone receptor) [µM] | half-life [2] [h] | IC50 (Glucocorticoid receptor) [µM]
1 | Cc1c(NS(C)(=O)=O)cccc1N(Cc1ccccc1)Cc1ccc(Oc2cccc(OCCCC(=O)NCCCC(=O)O)c2)cc1 | 0.12 | 0.55 | – | –
2 | Cc1c(NS(C)(=O)=O)cccc1N(Cc1ccccc1)Cc1ccc(Oc2ccc(OCC(=O)O)cc2)cc1 | 0.69 | 1.7 | 4.6 | –
3 | CC#C[C@]1(O)CC[C@H]2[C@@H]3CCC4=CC(=O)CC[C@]4(Cc4ccc(C)cc4)C3=CC[C@@]21C | 6.3 | 2.4 | 0.33 | 0.0024
4 | Cc1c(NS(C)(=O)=O)cccc1N(Cc1ccc(Oc2ccc(Cl)c(OCC(=O)O)c2)cc1)Cc1ccc(F)cc1F | 1 | 0.15 | – | 0.0026
5 | Cc1c(NS(C)(=O)=O)cccc1N(Cc1ccc(Oc2ccc(F)c(OCC(=O)O)c2)cc1)Cc1ccc(F)cc1F | – | 0.18 | 4.1 | 0.0048

Source: ChEMBL document CHEMBL1141148, “Antidiabetic activity of passive nonsteroidal glucocorticoid receptor modulators” (J Med Chem, 2005)
